Assay results: patent US20090048295A1, “SUBSTITUTED 5,6,7,8-TETRAHYDROQUINOLINE DERIVATIVES, COMPOSITIONS, AND METHODS OF USE THEREOF” (priority 2007, published 2009)
“And” between values parts separate entries of the source, which are not always exact repeats. Identical values can stand only once. Like-named read-outs stand apart in the source and are kept apart here.

Experiments:
[1] = target: T1, C5a receptor (Homo sapiens, UniProt P21730); experiment: biochemical
T1 sequence (P21730 1-350): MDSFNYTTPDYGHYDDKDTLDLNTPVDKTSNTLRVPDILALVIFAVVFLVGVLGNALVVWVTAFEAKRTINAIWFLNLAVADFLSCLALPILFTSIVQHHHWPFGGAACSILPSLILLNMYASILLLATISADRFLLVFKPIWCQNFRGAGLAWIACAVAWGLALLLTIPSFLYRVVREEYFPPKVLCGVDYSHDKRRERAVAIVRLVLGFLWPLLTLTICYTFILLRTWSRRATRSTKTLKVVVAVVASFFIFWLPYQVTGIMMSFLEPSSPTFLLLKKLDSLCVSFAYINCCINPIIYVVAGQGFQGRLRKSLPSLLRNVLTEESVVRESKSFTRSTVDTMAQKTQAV
Experimental: (§1) Competition binding assays for C5a receptors were performed by incubation of differentiated U937 cells (200,000 cells/well), test compound (1% DMSO) and [^125I]-C5a (Bolton & Hunter labeled, Perkin Elmer, specific activity=2200 Ci/mmol, 0.05 nM final) in binding buffer consisting of 50 mM HEPES, 5 mM MgCl2, 1 mM CaCl2, 0.5% protease-free BSA, 0.02% NaN3, pH 7.4. 100× solutions of test compounds were prepared in DMSO and further diluted in binding buffer. Non-specific binding was defined in wells containing 100 nM recombinant C5a. Cells and compound were pre-incubated for 30 min at RT. After addition of the radioligand, further incubation for 60 min occurred at 4° C. Cells were harvested on GF/B filters—presoaked in 0.5% polyethylenimine, followed by washing with binding buffer containing 500 mM NaCl, pH 7.4. Filter bound radioactivity was determined by liquid scintillation counting. IC50 and Ki values were calculated using non-linear regression in Graphpad Prism. Ki is calculated using the equation of Cheng and Prusoff (Biochem. Pharmacol. 1973, 22: 3099-3108)

[2] = target: T1, C5a receptor; experiment: Calcium Mobilization Assay (C5a-induced Ca2+ mobilization, FLIPR, differentiated U937 cells); type: cell-based; set-up: endogenous in cells; host or cells: U937 cells differentiated with dibutyryl cAMP; conditions: […] recombinant human C5a, 20 min pre-incubation, multiple values = duplicate experiments, read-out: C5a Induced Ca Mobil. Average IC50
Method in brief: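 Differentiated U937 cells (1 mM dibutyryl cAMP, 2–3 days) loaded with Fluo-3AM, pre-incubated with compound 20 min at room temperature (1% DMSO), then stimulated with 1.5 nM recombinant human C5a. Intracellular Ca2+ fluorescence recorded on FLIPR each second to 2 min post-addition; maximal fluorescence used.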

[3] = target: T1, C5a receptor; experiment: [125I]-C5a Radioligand Binding Assay (competition binding, differentiated U937 cells); conditions: [125I]-C5a 0.05 nM, U937 cells, multiple values = duplicate experiments; for inhibition at 10 µM: read-out: [125I]-C5a Binding % Inhibition 10 μM, test compound 10 μM; for [125I]-C5a Binding % Inhibition 1 μM: test compound 1 μM; for [125I]-C5a Binding % Inhibition 10 μM: test compound 10 μM; for inhibition at 1 µM: read-out: [125I]-C5a Binding % Inhibition 1 μM, test compound 1 μM;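 for all read-outs here: cells preincubated with compound 30 min at room temperature, then 60 min at 4 °C with radioligand, bound counts read by scintillation, nonspecific binding defined with 100 nM C5a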
Experimental: as §1

[4] = target: T1, C5a receptor
Experimental: as §1

Ki [1]	IC50 [2]	inhibition at 10 µM [3]	[125I]-C5a Binding % Inhibition 1 μM [3]	[125I]-C5a Binding % Inhibition 10 μM [3]	inhibition at 1 µM [3]	Compound	Ki [4]
2060 nM	> 10000 nM	68%	45% and 24%	80%		CCc1cccc(CC)c1-c1cc(OC)c2c(n1)CCCC2N(C)C1Cc2ccccc2C1 (stereo not shown) [Compound 95]	
409 nM	> 10000 nM	86%	71%	84%	87%	CCc1cccc(CC)c1-c1cc(OC)c2c(n1)CCCC2N(C)Cc1cccc2ccccc12 (stereo not shown) [Compound 90]	
1160 nM	1770 nM	83%	46%	88%	59%	CCN(c1cccc2ccccc12)C1CCCc2nc(-c3c(OC)cccc3OC)cc(OC)c21 (stereo not shown) [Compound 58]	
106 nM	161 nM	86%	82%	98%	81%	CCc1cccc(CC)c1-c1cc(OC)c2c([n+]1[O-])CCCC2N(CC)c1cccc2ccccc12 (racemic) [Compound 19, (±)-[2-(2,6-Diethyl-phenyl)-4-methoxy-1-oxy-5,6,7,8-tetrahydro-quinolin-5-yl]-ethyl-naphthlen-1-yl-amine]	
1060 nM	> 10000 nM	83%	65% and 43%	78%		CCc1cccc(CC)c1-c1ccc2c(n1)CCCC2N(CC)c1cccc2ccccc12 (racemic) [Compound 109, (±)-[2-(2,6-Diethyl-phenyl)-5,6,7,8-tetrahydro-quinolin-5-yl]-ethyl-naphthlen-1-yl-amine]	
7.3 nM	165 nM	93%	99%	102% and 100%	84%	CCc1cccc(CC)c1-c1cc(OC)c2c(n1)CCCC2N(C)c1cccc2ccccc12 (racemic) [Compound 20, (±)-[2-(2,6-Diethyl-phenyl)-4-methoxy-5,6,7,8-tetrahydro-quinolin-5-yl]-methyl-naphthlen-1-yl-amine]	
1700 nM	> 10000 nM	75%	71% and 37%	77%		CCc1cccc(CC)c1-c1cc(OC)c2c(n1)CCCC2N1Cc2ccccc2C1 (stereo not shown) [Compound 89]	
86 nM	647 nM	87%	90%	98%	81%	CCc1ccccc1-c1cc(OC)c2c(n1)CCCC2N(CC)c1cccc2ccccc12 (racemic) [Compound 39, (±)-Ethyl-[2-(2-ethyl-phenyl)-4-methoxy-5,6,7,8-tetrahydro-quinolin-5-yl]-naphthlen-1-yl-amine]	
963 nM	> 10000 nM	75%	49%	79%	56%	CCc1cccc(CC)c1-c1cc(OC)c2c(n1)CCCC2N(CC)Cc1ccccc1 (stereo not shown) [Compound 85]	
	71 nM	97%			91%	CCc1cccc(CC)c1-c1cc(OC)c2c(n1)CCCC2Nc1ccc(Cl)cc1CO (stereo not shown) [Compound 9]	13 nM

Compound	Ki [1]	IC50 [2]	inhibition at 10 µM [3]	[125I]-C5a Binding % Inhibition 1 μM [3]	[125I]-C5a Binding % Inhibition 10 μM [3]	inhibition at 1 µM [3]	Ki [4]
CCc1cccc(CC)c1-c1cc(OC)c2c(n1)CCCC2N(C)c1ccccc1 (stereo not shown) [Compound 82]		7940 nM	81%	55%	76%	66%	678 nM
